Columns and labels:
[1] = tested on: angiotensin converting enzyme (ACE); experiment: Plasma ACE-activity, trapping-assay (Ang I substrate, monoclonal antibody TRAP, RIA) after oral enalapril; type: in vivo, human; conditions: for ACE-activity measured in vitro with the trapping-assay as percent of baseline / ACE-Activity trapping-assay: mean ± SEM; for ACE-Activity trapping-assay: healthy humans, single oral dose 20 mg enalapril
Description: (§1) Ten normal volunteers aged 20 to 28 years (body weight 63 to 85 kg) participated in the study. On the study day, they came to the hospital at 7 a.m. and were installed in a supine position. At 8 a.m., the subjects ingested 20 mg enalapril, an inhibitor of angiotensin converting enzyme. Venous blood samples were collected before (time 0) and at 0.5, 1, 2, 4, 8 and 24 hours after enalapril intake. The subjects remained in supine position for one hour prior to blood sampling and no food intake was permitted within three hours prior to sampling.
(§2) For the measurement of ACE-activity, blood samples (5 ml) were collected from the antecubital vein into prechilled glass tubes containing heparin (56 USP) and 25 μl renin inhibitor CGP 29287 (Ciba-Geigy, Basel, Switzerland) at 1 mM in water. Blood was centrifuged at 4° C. and 2000 g for 10 minutes and plasma aliquots of 0.5 ml were snap frozen in liquid nitrogen and stored at -70° C. until analyzed.
All procedures were done in an ice-water bath unless stated otherwise: Plasma was thawed and centrifuged at 4° C. and 40 μl supernatant was pipetted into a small polypropylene tube. Ten microliter monoclonal antibody TRAP (which was secreted from the Hybridoma cell line TRAP DSM ACC2003) was added (mouse ascites diluted 1:8400 in 3M tris buffer at pH 7.3). One picomole angiotensin I was added in 10 microliter albumin buffer containing--for blank determination only--EDTA at 0.2M concentration. After mixing and cold centrifugation in order to concentrate the mixture at the bottom of the tube (1 minute at 2000 g) samples were incubated in a water bath at 37° C. for 20 minutes. Incubation was stopped by returning the samples to the ice-water bath. Forty microliters of albumin buffer without/with 0.2M EDTA was added to blanks/samples in order to equalize conditions. Each tube (total 100 microliters) finally received 1 ml albumin buffer containing 1 fmol ^125 I-Ang II (2000 counts per minute) and EDTA at 0.02M concentration. After a 24 hour incubation at 4° C., antibody-bound and free Ang II were separated by adding 0.3 ml water containing 2% dextran-coated charcoal, mixing for 10 minutes, centrifugation at 4° C. (for 20 minutes at 6000 g) and decanting of the supernatant. Supernatant and pellet were counted in a ten-well scintillation counter (GammamasterR, Wallac, Turku, Finland) and generated Ang II was read from a simultaneously established standard curve.
For the standard curve, increasing amounts of unlabeled Ang II ranging from 16 to 4000 fmol in 40 μl pool plasma which contained unmeasurably low endogenous Ang I and Ang II and renin inhibitor CGP 29287 at 0.01 mM concentration; antibody in 3M tris buffer (10 μl) and 1000 fmol Ang I in EDTA-albumin buffer (10 μl) were added in order to obtain identical conditions as for the unknown samples.

angiotensin II = experiment: Plasma angiotensin II concentration after oral enalapril; type: in vivo, human; conditions: healthy humans, single oral dose 20 mg enalapril, mean ± SEM
Description: as §1
(§3) For the measurement of Ang II (Nussberger J., Brunner D. B., Waeber B., Brunner H. R., Hypertension 1985; 7 (Suppl. I): 11-17) and immunoreactive Ang I (Nussberger J., Brunner D. B., Waeber B., Brunner H. R., Life Sci. 1988; 42:1683-1688), another 10 ml blood were collected on an inhibitor cocktail containing EDTA and renin inhibitor to prevent degradation and generation of these peptides in vitro. Samples were centrifuged at 4° C. and plasma aliquots of 2.2 ml snap frozen and stored as described above.

[2] = tested on: angiotensin converting enzyme (ACE); experiment: Plasma ACE-activity, conventional assay (substrate carbobenzoxy-Phe-His-Leu) after oral enalapril; type: in vivo, human; conditions: for Plasma ACE-activity by the conventional method, % of pretreatment values / ACE-Activity Conventional assay: mean ± SEM; for ACE-Activity Conventional assay: healthy humans, single oral dose 20 mg enalapril
Description: as §1, §2
(§4) Plasma ACE-activity was also measured by an established method using as substrate synthetic carbobenzoxy-Phe-His-Leu at 1.8 mM concentration (Piquilloud Y., Reinharz A., Roth M.. Biochem. Biophys. Acta 1970; 206: 136-142). The ratio of the plasma concentrations Ang II/Ang I was used for estimation of ACE-activity "in vivo" (Nussberger J., Juillerat L., Perret F., Waeber B., Bellet M., Brunner H. R., Menard J., Am Heart J. 1989; 117: 717-722).

[3] = tested on: angiotensin converting enzyme (ACE); experiment: Ratio of plasma Ang II/Ang I as in vivo ACE-activity after oral enalapril; set-up: species or system human; conditions: for In vivo ACE-activity (ratio of plasma Ang II to Ang I) as percent of baseline / Ratio Ang II/Ang I: mean ± SEM; for Ratio Ang II/Ang I: plasma, healthy humans, single oral dose 20 mg enalapril
Description: as §1, §3, §4

angiotensin I = experiment: Plasma angiotensin I concentration after oral enalapril; type: in vivo, human; conditions: healthy humans, single oral dose 20 mg enalapril, mean ± SEM
Description: as §1, §3

[4] = 4 hours post enalapril intake (20 mg oral)
[5] = 8 hours post enalapril intake (20 mg oral)
[6] = 24 hours post enalapril intake (20 mg oral)

## CCOC(=O)[C@H](CCc1ccccc1)N[C@@H](C)C(=O)N1CCC[C@H]1C(=O)O [enalapril]
[1]; [4]
  ACE-activity measured in vitro with the trapping-assay as percent of baseline: 3.6±2.4%
[1]; [5]
  ACE-activity measured in vitro with the trapping-assay as percent of baseline: 1.3±1.3%
[1]; [6]
  ACE-activity measured in vitro with the trapping-assay as percent of baseline: 27.4±3.4%
[1]; at 24 hours
  Plasma ACE-activity measured in vitro, trapping method, returned to: 27%
[1]; at peak inhibition
  Decrease of plasma ACE-activity measured in vitro, trapping method: 99%
[1]; 0.5 h after intake
  ACE-Activity trapping-assay: 295 ± 27 fmol/mL/min
[1]; 1 h after intake
  ACE-Activity trapping-assay: 107 ± 17 fmol/mL/min
[1]; 2 h after intake
  ACE-Activity trapping-assay: 28 ± 8 fmol/mL/min
[1]; 4 h after intake
  ACE-Activity trapping-assay: 15 ± 10 fmol/mL/min
[1]; 8 h after intake
  ACE-Activity trapping-assay: 5 ± 5 fmol/mL/min
[1]; 24 h after intake
  ACE-Activity trapping-assay: 87 ± 10 fmol/mL/min
Angiotensin II; 0.5 h after intake
  Angiotensin II: 4.6 ± 0.5 fmol/mL
Angiotensin II; 1 h after intake
  Angiotensin II: 2.9 ± 0.5 fmol/mL
Angiotensin II; 2 h after intake
  Angiotensin II: 1.1 ± 0.3 fmol/mL
Angiotensin II; 4 h after intake
  Angiotensin II: 1.0 ± 0.2 fmol/mL
Angiotensin II; 8 h after intake
  Angiotensin II: 1.6 ± 0.4 fmol/mL
Angiotensin II; 24 h after intake
  Angiotensin II: 3.8 ± 0.5 fmol/mL
[2]; 4 hours after enalapril administration (20 mg oral)
  Plasma ACE-activity by the conventional method, % of pretreatment values: 16.5±1.7%
[2]; 8 hours after enalapril administration (20 mg oral)
  Plasma ACE-activity by the conventional method, % of pretreatment values: 20.8±1.7%
[2]; 24 hours after enalapril administration (20 mg oral)
  Plasma ACE-activity by the conventional method, % of pretreatment values: 62.6±1.6%
[2]; at 24 hours
  ACE-activity, conventional method, return towards baseline: 66%
[2]; at peak inhibition
  Peak ACE-inhibition, decrease from baseline, conventional method: 83%
[2]; 0.5 h after intake
  ACE-Activity Conventional assay: 18.1 ± 1.7 nmol/mL/min
[2]; 1 h after intake
  ACE-Activity Conventional assay: 12.1 ± 1.2 nmol/mL/min
[2]; 2 h after intake
  ACE-Activity Conventional assay: 4.5 ± 0.8 nmol/mL/min
[2]; 4 h after intake
  ACE-Activity Conventional assay: 3.0 ± 0.4 nmol/mL/min
[2]; 8 h after intake
  ACE-Activity Conventional assay: 3.7 ± 0.4 nmol/mL/min
[2]; 24 h after intake
  ACE-Activity Conventional assay: 11.2 ± 1.0 nmol/mL/min
[3]; [4]
  In vivo ACE-activity (ratio of plasma Ang II to Ang I) as percent of baseline: 2.1±0.3%
[3]; [5]
  In vivo ACE-activity (ratio of plasma Ang II to Ang I) as percent of baseline: 2.0±0.4%
[3]; [6]
  In vivo ACE-activity (ratio of plasma Ang II to Ang I) as percent of baseline: 21.9±5.0%
[3]; at 24 hours
  In vivo ACE-activity (ratio of plasma Ang II to Ang I) returned to: 22%
[3]; at peak inhibition
  Decrease of in vivo ACE-activity (ratio of plasma Ang II to Ang I): 98%
[3]; 0.5 h after intake
  Ratio Ang II/Ang I: .748 ± .101
[3]; 1 h after intake
  Ratio Ang II/Ang I: .315 ± .094
[3]; 2 h after intake
  Ratio Ang II/Ang I: .029 ± .006
[3]; 4 h after intake
  Ratio Ang II/Ang I: .015 ± .003
[3]; 8 h after intake
  Ratio Ang II/Ang I: .016 ± .003
[3]; 24 h after intake
  Ratio Ang II/Ang I: .147 ± .027
Angiotensin I; 0.5 h after intake
  Angiotensin I: 7.3 ± 1.5 fmol/mL
Angiotensin I; 1 h after intake
  Angiotensin I: 13.5 ± 3.0 fmol/mL
Angiotensin I; 2 h after intake
  Angiotensin I: 45.7 ± 12.9 fmol/mL
Angiotensin I; 4 h after intake
  Angiotensin I: 66.8 ± 17.6 fmol/mL
Angiotensin I; 8 h after intake
  Angiotensin I: 76.6 ± 15.9 fmol/mL
Angiotensin I; 24 h after intake
  Angiotensin I: 32.1 ± 6.4 fmol/mL

Source: US5635359A, “Method for measuring the activity of angiotensin converting enzyme in biological samples” (priority 1991, dated 1997)
